US8680052B1, “Methods of treating, reducing the incidence of, and/or preventing ischemic events” (The Medicines Company, priority 2013, dated 2014)
Where two headings read alike, the source gives them in different places.

System: patients undergoing percutaneous coronary intervention (PCI)
Conditions: for OR (95% CI): Mortality/MI/IDR / OR (95% CI): Mortality/Q-wave MI/IDR / OR (95% CI): Mortality/Q-wave MI/Stent thrombosis / OR (95% CI): Q-wave MI / OR (95% CI): Stent thrombosis / OR (95% CI): All-cause mortality / OR (95% CI): IDR / OR (95% CI): MI / OR (95% CI): Stroke / OR (95% CI): Mortality/MI/IDR (primary endpoint): cangrelor vs comparator arm; for Mortality/Q-wave MI/IDR / Mortality/Q-wave MI/Stent thrombosis: exploratory; for Angiographic complications (site reported): Abrupt vessel closure / Angiographic complications (site reported): Acute stent thrombosis / Angiographic complications (site reported): Need for urgent CABG / Angiographic complications (site reported): New thrombus or suspected thrombus / Angiographic complications (site reported): Threatened abrupt closure / Angiographic complications (site reported): Unsuccessful procedure: index PCI
[1] = 48-hour, MITT, listed as cangrelor

Experimental: The diagnosis of non-ST-segment elevation myocardial infarction required troponin I or T greater than the upper limit of normal within 24 hours of randomization (or if troponin results were unavailable at that time, creatine kinase-myocardial band isoenzyme [CK-MB] greater than the upper limit of normal). The diagnosis of unstable angina required ischemic chest discomfort occurring at rest and lasting ≧10 minutes within the 24 hours prior to randomization and dynamic electrocardiographic changes; age ≧65 years and/or diabetes mellitus were also required.
The primary efficacy endpoint was the composite of mortality, myocardial infarction, or ischemia-driven revascularization at 48 hours. The primary analysis was performed on a modified intent-to-treat population. Confirmatory analyses were performed on an intent-to-treat population. Secondary endpoints included the individual rates of mortality, myocardial infarction, new Q-wave myocardial infarction, ischemia-driven revascularization, abrupt vessel closure, or stroke at 48 hours. Mortality at 30 days and 1 year was also recorded. The clinical events committee adjudicated myocardial infarction, Q-wave myocardial infarction, ischemia-driven revascularization, stent thromboses, and stroke (ischemic or hemorrhagic). The definition of stent thrombosis was similar to the Academic Research Consortium definition of definite stent thrombosis. After review of the prespecified analyses, two exploratory endpoints less reliant on periprocedural biomarker ascertainment were examined. The exploratory endpoints, which were composed of prespecified and adjudicated endpoints, were the composite of mortality, Q-wave myocardial infarction, or ischemia-driven revascularization and the composite of mortality, Q-wave myocardial infarction, or stent thrombosis. Bleeding and adverse events through 48 hours were compared.
All efficacy analyses were performed on the modified intent-to-treat population, defined as all randomized patients who received at least one dose of study drug and underwent the index PCI. All safety-related analyses were performed on the safety population, which included all patients who received at least one dose of assigned study drug. Patients in the safety analyses were assigned to a treatment arm based on treatment actually received, not as randomized. Intent-to-treat analyses are also presented for full disclosure of results. All statistical tests were two-tailed using a level of significance of 0.05. […] Logistic regression was also used to analyze the majority of the remaining secondary endpoints.

Compound: CSCCNc1nc(SCCC(F)(F)F)nc2c1ncn2[C@@H]1O[C@H](COP(=O)(O)OP(=O)(O)C(Cl)(Cl)P(=O)(O)O)[C@@H](O)[C@H]1O [Cangrelor, cangrelor]
- OR (95% CI): Mortality/MI/IDR (30-day, Safety population): 0.884 (0.732, 1.067)
- OR (95% CI): Mortality/Q-wave MI/IDR (30-day, Safety population): 0.732 (0.531, 1.010)
- OR (95% CI): Mortality/Q-wave MI/Stent thrombosis (30-day, Safety population): 0.651 (0.452, 0.938)
- OR (95% CI): Q-wave MI (30-day, Safety population): 0.528 (0.224, 1.248)
- OR (95% CI): Stent thrombosis (30-day, Safety population): 0.529 (0.282, 0.993)
- Mortality/Q-wave MI/IDR (30-day, Safety population): 67 (2.5) no. (%)
- Mortality/Q-wave MI/Stent thrombosis (30-day, Safety population): 49 (1.8) no. (%)
- All-cause mortality (48-hour, ITT): 8 (0.3) no. (%)
- IDR (48-hour, ITT): 19 (0.7) no. (%)
- MI (48-hour, ITT): 177 (6.6) no. (%)
- Mortality/MI/IDR (48-hour, ITT): 187 (6.9) no. (%)
- Q-wave MI (48-hour, ITT): 4 (0.1) no. (%)
- Stent thrombosis (48-hour, ITT): 5 (0.2) no. (%)
- Stroke (48-hour, ITT): 7 (0.3) no. (%)
- OR (95% CI): All-cause mortality (48-hour, ITT): 0.415 (0.181, 0.950)
- OR (95% CI): IDR (48-hour, ITT): 0.721 (0.398, 1.307)
- OR (95% CI): MI (48-hour, ITT): 0.906 (0.734, 1.120)
- OR (95% CI): Mortality/MI/IDR (48-hour, ITT): 0.859 (0.701, 1.054)
- OR (95% CI): Mortality/Q-wave MI/IDR (48-hour, ITT): 0.558 (0.341, 0.915)
- OR (95% CI): Mortality/Q-wave MI/Stent thrombosis (48-hour, ITT): 0.409 (0.224, 0.749)
- OR (95% CI): Q-wave MI (48-hour, ITT): 0.439 (0.135, 1.428)
- OR (95% CI): Stent thrombosis (48-hour, ITT): 0.308 (0.113, 0.842)
- OR (95% CI): Stroke (48-hour, ITT): 1.155 (0.388, 3.442)
- Mortality/Q-wave MI/IDR (48-hour, ITT): 25 (0.9) no. (%)
- Mortality/Q-wave MI/Stent thrombosis (48-hour, ITT): 15 (0.6) no. (%)
- All-cause mortality (48-hour, MITT): 6 (0.2) no. (%)
- IDR (48-hour, MITT): 19 (0.7) no. (%)
- MI (48-hour, MITT): 177 (6.7) no. (%)
- Mortality/MI/IDR (primary endpoint) (48-hour, MITT): 185 (7.0) no. (%)
- Q-wave MI (48-hour, MITT): 4 (0.2) no. (%)
- Stent thrombosis (48-hour, MITT): 5 (0.2) no. (%)
- Stroke (48-hour, MITT): 7 (0.3) no. (%)
- OR (95% CI): All-cause mortality (48-hour, MITT): 0.330 (0.131, 0.833)
- OR (95% CI): IDR (48-hour, MITT): 0.786 (0.430, 1.439)
- OR (95% CI): MI (48-hour, MITT): 0.917 (0.742, 1.133)
- OR (95% CI): Mortality/MI/IDR (primary endpoint) (48-hour, MITT): 0.867 (0.706, 1.065)
- OR (95% CI): Mortality/Q-wave MI/IDR (48-hour, MITT): 0.554 (0.332, 0.926)
- OR (95% CI): Mortality/Q-wave MI/Stent thrombosis (48-hour, MITT): 0.377 (0.199, 0.717)
- OR (95% CI): Q-wave MI (48-hour, MITT): 0.497 (0.149, 1.652)
- OR (95% CI): Stent thrombosis (48-hour, MITT): 0.310 (0.113, 0.847)
- OR (95% CI): Stroke (48-hour, MITT): 1.394 (0.442, 4.398)
- OR (95% CI): All-cause mortality [1]: 0.33
- OR (95% CI): Mortality/MI/IDR (primary endpoint) [1]: 0.87
- OR (95% CI): Stent thrombosis [1]: 0.31
- Mortality/Q-wave MI/IDR (48-hour, MITT): 23 (0.9) no. (%)
- Mortality/Q-wave MI/Stent thrombosis (48-hour, MITT): 13 (0.5) no. (%)
- OR (95% CI): All-cause mortality (48-hour, Safety population): 0.385 (0.161, 0.924)
- OR (95% CI): IDR (48-hour, Safety population): 0.754 (0.414, 1.373)
- OR (95% CI): MI (48-hour, Safety population): 0.901 (0.729, 1.113)
- OR (95% CI): Mortality/MI/IDR (48-hour, Safety population): 0.858 (0.699, 1.053)
- OR (95% CI): Mortality/Q-wave MI/IDR (48-hour, Safety population): 0.564 (0.341, 0.935)
- OR (95% CI): Mortality/Q-wave MI/Stent thrombosis (48-hour, Safety population): 0.395 (0.212, 0.735)
- OR (95% CI): Q-wave MI (48-hour, Safety population): 0.441 (0.136, 1.435)
- OR (95% CI): Stent thrombosis (48-hour, Safety population): 0.310 (0.113, 0.846)
- OR (95% CI): Stroke (48-hour, Safety population): 1.394 (0.442, 4.396)
- Mortality/Q-wave MI/IDR (48-hour, Safety population): 24 (0.9) no. (%)
- Mortality/Q-wave MI/Stent thrombosis (48-hour, Safety population): 14 (0.5) no. (%)
- All-cause mortality (48-hour, safety population): 7 (0.3) no. (%)
- IDR (48-hour, safety population): 19 (0.7) no. (%)
- MI (48-hour, safety population): 176 (6.6) no. (%)
- Mortality/MI/IDR (48-hour, safety population): 185 (7.0) no. (%)
- Q-wave MI (48-hour, safety population): 4 (0.2) no. (%)
- Stent thrombosis (48-hour, safety population): 5 (0.2) no. (%)
- Stroke (48-hour, safety population): 7 (0.3) no. (%)
- Rates of stent thrombosis (48 hours): 0.2%
- rate of mortality at 48 hours (48 hours): 0.2%
- primary endpoint (mortality, myocardial infarction, or ischemia-driven revascularization), patients with event (48 hours, MITT): 7.0%
- Angiographic complications (site reported): Abrupt vessel closure (ITT): 13 (0.5)
- Angiographic complications (site reported): Acute stent thrombosis (ITT): 1 (0.0)
- Angiographic complications (site reported): Need for urgent CABG (ITT): 5 (0.2)
- Angiographic complications (site reported): New thrombus or suspected thrombus (ITT): 14 (0.5)
- Angiographic complications (site reported): Threatened abrupt closure (ITT): 10 (0.4)
- Angiographic complications (site reported): Unsuccessful procedure (ITT): 84 (3.1)
- Angiographic complications (site reported): Abrupt vessel closure (MITT): 13 (0.5)
- Angiographic complications (site reported): Acute stent thrombosis (MITT): 1 (0.0)
- Angiographic complications (site reported): Need for urgent CABG (MITT): 5 (0.2)
- Angiographic complications (site reported): New thrombus or suspected thrombus (MITT): 14 (0.5)
- Angiographic complications (site reported): Threatened abrupt closure (MITT): 10 (0.4)
- Angiographic complications (site reported): Unsuccessful procedure (MITT): 81 (3.1)
- Angiographic complications (site reported): Abrupt vessel closure (Safety population): 13 (0.5)
- Angiographic complications (site reported): Acute stent thrombosis (Safety population): 1 (0.0)
- Angiographic complications (site reported): Need for urgent CABG (Safety population): 5 (0.2)
- Angiographic complications (site reported): New thrombus or suspected thrombus (Safety population): 14 (0.5)
- Angiographic complications (site reported): Threatened abrupt closure (Safety population): 10 (0.4)
- Angiographic complications (site reported): Unsuccessful procedure (Safety population): 81 (3.1)
- primary efficacy endpoint (subgroup of 1659 patients without baseline troponin elevation): 4.6%
- OR, primary efficacy endpoint (subgroup of 1659 patients without baseline troponin elevation, cangrelor vs placebo): 0.62
